Several values for one entry are separate records, joined by “and”; a condition that tells them apart may be missing. Identical values can stand only once. Like-named read-outs stand apart in the source and are kept apart here.
Tests used:
[1] = QWBA tissue distribution of [14C] Compound 1, albino Wistar Han rats (PO); format: in vivo; conditions: albino male WH rats, 20 mg/kg PO
Description: This study was conducted to determine the tissue distribution of drug-related radioactivity following a single oral (PO) (20 mg/kg) or intravenous (IV) (5 mg/kg) administration of [^14C]
Ten adult male pigmented Long-Evans (LE) rats (Group 1), 1 adult male LE rat (Group 2), and 3 albino Wistar Han (WH) rats (Group 3) received a single oral 20 mg/kg (Groups 1 and 3) or IV 5 mg/kg (Group 2) dose of [^14C] […] The formulation was prepared at a target dose of 5 mg (IV) or 20 mg (PO) […]
The carcasses were frozen in hexane dry-ice and stored at or below −20° C. prior to processing for QWBA. Each carcass was embedded, cut into sagittal sections, and mounted for QWBA. […] The lower limit of quantitation was 0.105 μg equiv/g.

[2] = Phase 1 single ascending dose plasma pharmacokinetics in healthy volunteers; format: in vivo, human
Description: This study was conducted in healthy human volunteers in a randomized, double-blind design. Compound 1 or placebo was administered as a single oral dose to twenty-eight healthy volunteers in three separate dose groups. […] Pharmacokinetic data from each volunteer is summarized in Table 29, and plasma concentration data is shown graphically in FIG. 19.

[3] = Stability under melanin binding assay conditions; conditions: 1 h
Description: […] The melanin solution was stored in the dark at 37° C. until use.
The assay plates containing samples with and without melanin were incubated in the dark with shaking at 37° C. for 1 hour. Following incubation, the samples were centrifuged for 15 minutes at approximately 4000 rpm at 37° C. to sediment the melanin. Sample supernatant (3 μL) was added to 100 μL of acetonitrile containing the internal standard and then diluted with water (197 μL).
% Stability=Mean Total Conc. (μM) after 1 Hour/Mean Total Conc. (μM) at Time Zero×100%

[4] = Ocular tissue and plasma pharmacokinetics, 15 mg/kg oral, New Zealand White rabbits (Example 3/5); format: in vivo
Description: Study design including group designation and dose levels are outlined in Table 4. […] Fifteen Dutch Belted and 5 New Zealand White rabbits were used as un-dosed controls. […] The dose volume was 5 mL/kg/dose for all groups. Safety was assessed with toxicological and ophthalmic examinations including slit lamp biomicroscopy, indirect ophthalmoscopy, rebound tonometry, and ultrasonic corneal pachymetry.
Analyst® software (Version 1.6.2) was used to capture the LC-MS/MS data and integrate the peak areas. Calibration standards and QCs were prepared in a blank solution of 75%:25% acetonitrile:water (v:v), ranging from 10 ng/mL to 10,000 ng/mL. Matrix matched standard and QC samples were prepared by mixing 2 μL of standard or QC sample above with 18 μL of appropriate ocular tissue or plasma. The final calibration standards ranged from 1 ng/mL to 1000 ng/mL. All plasma, retina, choroid-RPE, optic nerve, and vitreous humor samples were analyzed in a single run. Iris-ciliary body samples were analyzed in two runs due to a need for sample dilution. […] Dilution QCs were prepared at 5000 ng/mL where appropriate. Two sets of standards were used to bracket the analytical run at the beginning and end of the run. Three sets of QCs were included the analytical runs. All concentrations in ocular matrices are reported as ng/g based on the assumed density of 1 g/mL.
1, 6, 24, 96, 168, and 240 hours post-dose on Day 15, with the eyes collected at the same time as blood sampling. A single blood sample was taken from Groups 4 and 5 at sacrifice. Plasma, vitreous humor (VH), retina, choroid-retina pigmented epithelium (Choroid-RPE), optic nerve (ON), and iris-ciliary body (I-CB) were analyzed by LC-MS/MS to quantify test article concentrations. The lower limit of quantitation (LLOQ) in plasma and vitreous humor was 1.0 ng/mL. The LLOQ was 6.0 ng/g in retina, Choroid-RPE, and I-CB and the optic nerve LLOQ was 15 ng/g, assuming tissue density of 1 g/mL where relevant.
Study design including group designation and dose levels are outlined in Table 18.

[5] = Group 1, 200 mg single oral dose, individual subjects
[6] = Group 2, 600 mg single oral dose, individual subjects
[7] = Group 3, 1200 mg single oral dose, individual subjects

CC(=O)c1nn(CC(=O)N2C[C@H](F)C[C@H]2C(=O)Nc2cccc(Br)n2)c2ccc(-c3cnc(C)nc3)cc12 [Compound 1, (2S,4R)-1-(2-(3-Acetyl-5-(2-methylpyrimidin-5-yl)-1H-indazol-1-yl)acetyl)-N-(6-bromopyridin-2-yl)-4-fluoropyrrolidine-2-carboxamide]
Concentration of radioactivity at Tmax, non-pigmented skin [1]: 2.98 μg equiv/g | Concentration of radioactivity at Tmax, uvea of the non-pigmented eye [1]: 1.68 μg equiv/g | Highest concentration of radioactivity in blood ([1]; 1 h post-dose): 2.77 μg equiv/g | Concentration of radioactivity, uvea of the non-pigmented eye ([1]; 24 h): BQL | Concentration of radioactivity, non-pigmented skin ([1]; 168 h): BQL | AUC(0-24) [2, 5]: 3387.20 ng·h/mL and 4128.01 ng·h/mL and 2339.30 ng·h/mL and 3615.79 ng·h/mL and 1888.95 ng·h/mL and 2229.07 ng·h/mL | AUC(0-∞) [2, 5]: 3616.53 ng·h/mL and 4241.37 ng·h/mL and 2569.69 ng·h/mL and 3822.48 ng·h/mL and 1993.07 ng·h/mL and 2385.64 ng·h/mL | Cmax [2, 5]: 950 ng/mL and 2060 ng/mL and 764 ng/mL and 1380 ng/mL and 635 ng/mL and 562 ng/mL | Tmax [2, 5]: 1.25 h | AUC(0-24) [2, 6]: 6591.55 ng·h/mL and 6135.83 ng·h/mL and 6020.33 ng·h/mL and 4079.30 ng·h/mL and 7288.50 ng·h/mL | AUC(0-∞) [2, 6]: 6805.91 ng·h/mL and 7335.98 ng·h/mL and 6903.06 ng·h/mL and 4687.40 ng·h/mL and 8671.53 ng·h/mL | Cmax [2, 6]: 2480 ng/mL and 2100 ng/mL and 1380 ng/mL and 1810 ng/mL | Tmax [2, 6]: 2.00 h and 1.25 h | AUC(0-24) [2, 7]: 11822.00 ng·h/mL and 10219.40 ng·h/mL and 8431.90 ng·h/mL and 11357.50 ng·h/mL and 14054.00 ng·h/mL | AUC(0-∞) [2, 7]: 13297.29 ng·h/mL and 10982.71 ng·h/mL and 10243.93 ng·h/mL and 13190.18 ng·h/mL and 15424.93 ng·h/mL | Cmax [2, 7]: 3080 ng/mL and 3230 ng/mL and 3530 ng/mL and 1940 ng/mL and 2530 ng/mL and 4100 ng/mL | AUC(0-t) ([2]; human, po, 200 mg, Group 1, 200 mg single oral dose, Mean (N 6), read-out: AUC(0-24)): 2930 ng·h/mL | AUC(0-inf) ([2]; human, po, 200 mg, Group 1, 200 mg single oral dose, Mean (N 6), read-out: AUC(0-∞)): 3100 ng·h/mL | Cmax ([2]; human, po, 200 mg, Group 1, 200 mg single oral dose, Mean (N 6), read-out: Cmax): 1060 ng/mL | Tmax ([2]; human, po, 200 mg, Group 1, 200 mg single oral dose, Mean (N 6), read-out: Tmax): 1.79 h | Tmax ([2]; human, po, 200 mg, Group 1, 200 mg single oral dose, individual subjects, read-out: Tmax): 1.5 h | AUC(0-t) ([2]; human, po, 200 mg, Group 1, 200 mg single oral dose, read-out: Mean AUC(0-24)): 2390 ng·h/mL | AUC(0-inf) ([2]; human, po, 200 mg, Group 1, 200 mg single oral dose, read-out: Mean AUC(0-∞)): 3020 ng·h/mL | Cmax ([2]; human, po, 200 mg, Group 1, 200 mg single oral dose, read-out: Mean Cmax): 1060 ng/mL | AUC(0-t) ([2]; human, po, 600 mg, Group 2, 600 mg single oral dose, Mean (N 6), read-out: AUC(0-24)): 6190 ng·h/mL | AUC(0-inf) ([2]; human, po, 600 mg, Group 2, 600 mg single oral dose, Mean (N 6), read-out: AUC(0-∞)): 7090 ng·h/mL | Cmax ([2]; human, po, 600 mg, Group 2, 600 mg single oral dose, Mean (N 6), read-out: Cmax): 2020 ng/mL | Tmax ([2]; human, po, 600 mg, Group 2, 600 mg single oral dose, Mean (N 6), read-out: Tmax): 1.63 h | AUC(0-t) ([2]; human, po, 600 mg, Group 2, 600 mg single oral dose, individual subjects, read-out: AUC(0-24)): 7020 ng·h/mL | AUC(0-inf) ([2]; human, po, 600 mg, Group 2, 600 mg single oral dose, individual subjects, read-out: AUC(0-∞)): 8160 ng·h/mL | Cmax ([2]; human, po, 600 mg, Group 2, 600 mg single oral dose, individual subjects, read-out: Cmax): 2180 ng/mL | AUC(0-t) ([2]; human, po, 600 mg, Group 2, 600 mg single oral dose, read-out: Mean AUC(0-24)): 6190 ng·h/mL | AUC(0-inf) ([2]; human, po, 600 mg, Group 2, 600 mg single oral dose, read-out: Mean AUC(0-∞)): 7090 ng·h/mL | Cmax ([2]; human, po, 600 mg, Group 2, 600 mg single oral dose, read-out: Mean Cmax): 2020 ng/mL | AUC(0-t) ([2]; human, po, 1200 mg, Group 3, 1200 mg single oral dose, Mean (N 6), read-out: AUC(0-24)): 11400 ng·h/mL | AUC(0-inf) ([2]; human, po, 1200 mg, Group 3, 1200 mg single oral dose, Mean (N 6), read-out: AUC(0-∞)): 13200 ng·h/mL | Cmax ([2]; human, po, 1200 mg, Group 3, 1200 mg single oral dose, Mean (N 6), read-out: Cmax): 3070 ng/mL | Tmax ([2]; human, po, 1200 mg, Group 3, 1200 mg single oral dose, Mean (N 6), read-out: Tmax): 2.5 h | AUC(0-t) ([2]; human, po, 1200 mg, Group 3, 1200 mg single oral dose, individual subjects, read-out: AUC(0-24)): 12700 ng·h/mL | AUC(0-inf) ([2]; human, po, 1200 mg, Group 3, 1200 mg single oral dose, individual subjects, read-out: AUC(0-∞)): 15800 ng·h/mL | Tmax ([2]; human, po, 1200 mg, Group 3, 1200 mg single oral dose, individual subjects, read-out: Tmax): 2.5 h | AUC(0-t) ([2]; human, po, 1200 mg, Group 3, 1200 mg single oral dose, read-out: Mean AUC(0-24)): 11400 ng·h/mL | AUC(0-inf) ([2]; human, po, 1200 mg, Group 3, 1200 mg single oral dose, read-out: Mean AUC(0-∞)): 13200 ng·h/mL | Cmax ([2]; human, po, 1200 mg, Group 3, 1200 mg single oral dose, read-out: Mean Cmax): 3070 ng/mL | Mean Stability [3]: 94.3% | Mean Vitreous Humor concentration ([4]; NZW rabbit, 15 mg/kg single oral dose, Day 1, 240 h): BLQ^a | Mean retina concentration ([4]; NZW rabbits, Day 1, 15 mg/kg single dose, 96 hr): BLQ | concentration at 0 h ([4]; New Zealand White, aqueous humor, NZW rabbit, 15 mg/kg single oral dose, Day 1, 0 h): 6.14 ng/mL | concentration at 1 h ([4]; New Zealand White, iris-ciliary body, NZW rabbit, 15 mg/kg single oral dose, Day 1, 1 h): 117 ng/g | MRT last ([4]; New Zealand White, po, Vitreous Humor, NZW rabbit, 15 mg/kg single dose, Day 1): 2.24 h | Cmax ([4]; New Zealand White, po, retina, NZW rabbit, 15 mg/kg single dose, Day 1): 200 ng/g | Tlast ([4]; Vitreous Humor, NZW rabbit, 15 mg/kg single dose, Day 1): 6 h | AUClast ([4]; plasma, NZW rabbit, 15 mg/kg single dose, Day 1): 1430 ng·h/mL
